Reference: US9822414B2, “In vitro method for predicting in vivo genotoxicity of chemical compounds” (priority 2011, dated 2017)
Where “and” joins values, the source holds several entries; their conditions need not be identical. Equal entries are not always repeated. Entries after “also recorded” stand apart in the source; their conditions may differ. Where two headings read alike, the source gives them in different places.

Columns and labels:
NR0B2 = test: Gene expression of NR0B2 in HepG2 cells exposed to compound (microarray, log2 treatment:control ratio); format: cell-based, human
LOC100505880 = test: Gene expression of LOC100131914/LOC100505880 in HepG2 cells exposed to compound (microarray, log2 treatment:control ratio); format: cell-based, human
HepG2 cell [1] = system: HepG2 cell
Salmonella typhimurium = settings: cited from earlier work
rodents = settings: cited from earlier work
[2] = system: conventional in vitro genotoxicity assays; settings: cited from earlier work
HepG2 cell [3] = test: Class prediction of in vivo genotoxicity by the method of the invention (Ames stratification plus three-gene expression in HepG2); settings: 62 compounds, three replicates, HepG2 24 h
PWWP2B = test: Gene expression of PWWP2B in HepG2 cells exposed to compound (microarray, log2 treatment:control ratio); format: cell-based, human
[4] = positive when at least one in vivo assay (MN, CA) positive, equivocal considered positive
[5] = HepG2, Ames positive compounds, per replicate, reference value −0.099
[6] = HepG2 cells, 24 h exposure, Ames positive compounds, one line per replicate of triplicate experiments
[7] = HepG2, Ames positive compounds, per replicate, reference value −0.071
[8] = HepG2, Ames positive compounds, per replicate, reference value −0.054
[9] = HepG2 cells, 24 h exposure, Ames positive compounds, one line per replicate of triplicate experiments, listed as Fu

Structure (SMILES)	LOC100505880 above or below the reference value (LOC100505880)	Average result over three measurements (HepG2 cell [1])	Ames (Salmonella typhimurium)	Standard (in vivo genotoxicity designation) (rodents; in vivo)	In vitro GTX [2]	Prediction (class prediction results using the method of the invention) (HepG2 cell [3])	NR0B2 above or below the reference value (NR0B2)	PWWP2B above or below the reference value (PWWP2B)	In vivo GTX (rodents; [4])	At least ⅔ genes +? (HepG2 cell [1])	Prediction (class prediction results using the method of the invention) (HepG2 cell [1])	In vivo GTX (rodents; in vivo)	Log2 treatment: control ratio PWWP2B (PWWP2B)	other results
CC(=O)Nc1cccc2c1-c1ccccc1C2 [4AAF]	− (minus sign indicates a value below the reference value)	NGTX	+	NGTX	+	NGTX+								Log2 treatment: control ratio NR0B2 (NR0B2): −0.04 and −0.278 and −0.088; Log2 treatment: control ratio LOC100505880 (LOC100505880): −0.217 and −0.295 and −0.101
Nc1ccc(-c2ccccc2)cc1 [ABP]							+ (Plus sign indicates a value above the reference value)	+ (Plus sign indicates a value above the reference value)	+					
Cn1cnc([N+](=O)[O-])c1Sc1ncnc2nc[nH]c12 [AZA]		GTX		GTX	+					GTX	GTX	+		NR0B2 above or below the reference value (NR0B2; [5]): + (Plus sign indicates a value above the reference value); Log2 treatment: control ratio NR0B2 (NR0B2; [6]): 1.473 and 0.232 and 0.893; PWWP2B above or below the reference value (PWWP2B; [7]): + (Plus sign indicates a value above the reference value); Log2 treatment: control ratio PWWP2B (PWWP2B; [6]): 0.536 and 0.044 and −0.035; LOC100505880 above or below the reference value (LOC100505880; [8]): + (Plus sign indicates a value above the reference value); Log2 treatment: control ratio LOC100505880 (LOC100505880; [6]): 1.541 and 0.022 and 1.33; Ames (Salmonella typhimurium; Ames results based on NTP data): +
Nc1ccc(-c2ccc(N)cc2)cc1 [BZ]		GTX	+	GTX	+		+ (key: +: Plus sign indicates a value above the reference value; −: minus sign indicates a value below the reference value)			GTX	GTX	+		
O=P1(N(CCCl)CCCl)NCCCO1 (stereo not shown) [CP]	+ (Plus sign indicates a value above the reference value)	GTX	+	GTX	+	GTX			+	GTX			0.042 and −0.221 and 0.073	Log2 treatment: control ratio LOC100505880 (LOC100505880): −0.031 and −0.01 and 0.139
O=C(O)CCCc1ccc(N(CCCl)CCCl)cc1 [Cb]	+ (Plus sign indicates a value above the reference value)	GTX	+	GTX	+	GTX	+ (Plus sign indicates a value above the reference value)		+	GTX				
CCN(N=O)C(N)=O [ENU]		GTX	+	GTX	+	GTX	+ (Plus sign indicates a value above the reference value)	+ (Plus sign indicates a value above the reference value)	+	GTX			0.01 and 0.06 and 0.11	
O=c1[nH]cc(F)c(=O)[nH]1 [FU]		NGTX		GTX	+						NGTX+	+		NR0B2 above or below the reference value (NR0B2; [5]): + (Plus sign indicates a value above the reference value); also recorded: − (minus sign indicates a value below the reference value); NR0B2 above or below the reference value (NR0B2; HepG2, Ames positive compounds, per replicate, reference value −0.099, listed as Fu): − (minus sign indicates a value below the reference value); Log2 treatment: control ratio NR0B2 (NR0B2; [6]): 0.781 and −0.197; Log2 treatment: control ratio NR0B2 (NR0B2; [9]): −0.457; PWWP2B above or below the reference value (PWWP2B; [7]): + (Plus sign indicates a value above the reference value); Log2 treatment: control ratio PWWP2B (PWWP2B; [6]): 0.256 and 0.175; Log2 treatment: control ratio PWWP2B (PWWP2B; [9]): 0.008; LOC100505880 above or below the reference value (LOC100505880; [8]): + (Plus sign indicates a value above the reference value); also recorded: − (minus sign indicates a value below the reference value); LOC100505880 above or below the reference value (LOC100505880; HepG2, Ames positive compounds, per replicate, reference value −0.054, listed as Fu): − (minus sign indicates a value below the reference value); Log2 treatment: control ratio LOC100505880 (LOC100505880; [6]): 0.583 and −0.067; Log2 treatment: control ratio LOC100505880 (LOC100505880; [9]): −0.218; Ames (Salmonella typhimurium; Ames results based on NTP data): +
Cn1c(N)nc2c3cccnc3ccc21 [IQ]	+ (Plus sign indicates a value above the reference value)	GTX	+	GTX	+	GTX		+ (Plus sign indicates a value above the reference value)	+	GTX			0.188 and −0.003 and −0.052	
Nc1ccc(Cc2ccc(N)c(Cl)c2)cc1Cl [MOCA]				GTX	+		+ (Plus sign indicates a value above the reference value)	+ (Plus sign indicates a value above the reference value)	+					
CCC1(c2ccccc2)C(=O)NC(=O)NC1=O [PhB]	− (minus sign indicates a value below the reference value)	NGTX	+	NGTX	+			− (minus sign indicates a value below the reference value)		NGTX	NGTX	−	−0.169 and −0.272 and −0.154	Log2 treatment: control ratio LOC100505880 (LOC100505880): −0.154 and −0.38 and −0.303; Classification of NGTX compounds by the method of the invention (false positives) (HepG2 cell [1]): misclassification; Results in the conventional in vitro genotoxicity assays [2]: positive results
O=c1c(O)c(-c2ccc(O)c(O)c2)oc2cc(O)cc(O)c12 [Que]		NGTX		NGTX	+					NGTX	NGTX	−		NR0B2 above or below the reference value (NR0B2; [5]): − (minus sign indicates a value below the reference value); Log2 treatment: control ratio NR0B2 (NR0B2; [6]): −0.635 and −0.69 and −3.709; PWWP2B above or below the reference value (PWWP2B; [7]): − (minus sign indicates a value below the reference value); Log2 treatment: control ratio PWWP2B (PWWP2B; [6]): −0.206 and −0.437 and −0.113; Log2 treatment: control ratio LOC100505880 (LOC100505880; [6]): 0.062 and −0.337 and −0.727; Ames (Salmonella typhimurium; Ames results based on NTP data): +
COc1ccc(C)cc1N [pCres]		GTX	+	GTX	+	GTX	+ (Plus sign indicates a value above the reference value)	+ (Plus sign indicates a value above the reference value)	+	GTX				
